Measured values from patent US9084395B2, “Method to arrest growth of invasive species' seeds while in non-natural environment prior to transport” (priority 2012, dated 2015).
Like-named read-outs stand apart in the source and are kept apart here.

Key:
[1] = tested on: diffuse knapweed (Centauria. diffusa) seeds; assay: Protocol 1 clean seed dip treatment and germination test, diffuse knapweed; type: in vivo; conditions: non-soil environment
Method: (§1) All seeds for a Protocol 1 Test were removed from the flower parts and used as clean seeds. A treatment consisted of 100 seeds with four replications for a total of at least 400 seeds per treatment. In some cases extra seeds were treated to accommodate additional germination tests, if needed. In lots of 100, seeds were first rinsed with water to simulate a wash treatment. These pre-wetted seeds were then dipped for one minute in one of the Treatment Rinse percent solutions per volume as show below. Three quality glyphosate products were used. […] The inert ingredients typically comprise tallow amine, lecithin, algaecide and purified water. […] The surfactants added to the percent solution were a penetrator, comprising methylated seed oil, and a spreader, comprising polyether-polymethylsiloxane-copolymer polyether or silicone polyether copolymer.
(§2) Seeds were stirred during the dip to assure all seeds were exposed to the solution. Treated seeds were allowed to air dry with the time to dry recorded. Three main seed types were used in the Protocol 1 Test: whitetop (Cardaria draba), spotted knapweed (Centauria maculosa), and diffuse knapweed (Centauria. diffusa). Two additional seed types were used for one treatment each, Russian thistle (Salsola tragus) and Scotch thistle (Onopordum acanthium).
(§3) When seeds were thoroughly dry after treatment they were packaged and sent for germination testing. […]

[2] = tested on: Scotch thistle (Onopordum acanthium) seeds; assay: Protocol 1 clean seed treatment, germination test in soil environment, Scotch thistle; type: in vivo
Method: as §1, §2, §3

[3] = tested on: Russian thistle (Salsola tragus) seeds; assay: Protocol 1 clean seed dip treatment and germination test, Russian thistle; type: in vivo; conditions: non-soil environment
Method: as §1, §2, §3

[4] = tested on: whitetop (Cardaria draba) seeds; assay: Protocol 1 clean seed dip treatment and germination test, whitetop; type: in vivo; conditions: non-soil environment
Method: as §1, §2, §3

[5] = tested on: Scotch thistle (Onopordum acanthium) seeds; conditions: soil application of glyphosate; cited from earlier work
[6] = tested on: spotted knapweed (Centauria maculosa) seeds; assay: Protocol 1 clean seed dip treatment and germination test, spotted knapweed; type: in vivo; conditions: non-soil environment
Method: as §1, §2, §3

Question: For `O=C(O)CNCP(=O)(O)O` [glyphosate], which “control, considering treated seeds that may grow to reproductive maturity” value (“control … to reproductive maturity” below) [1] is on record?
Answer: 99%

Question: And the “control … to reproductive maturity” value ([2]; Scotch thistle, non-soil environment)?
Answer: 100%

Question: What about the “control of Scotch thistle” value ([2]; direct application of glyphosate to the seed, then placed in soil to germinate) of the same molecule?
Answer: controlled

Question: What about the “control … to reproductive maturity” value [3] of the same molecule?
Answer: 72%

Question: And the “control … to reproductive maturity” value [4]?
Answer: 95%

Question: What about the “control of Scotch thistle” value [5] of the same molecule?
Answer: not controlled

Question: And the “control … to reproductive maturity” value [6]?
Answer: 100%
